Data published in article PMC7211195 (Investigational New Drugs, 2019).
Like-named read-outs stand apart in the source and are kept apart here.

What was measured:
[1] = Lapatinib pharmacokinetics in rat blood plasma (BP), HPLC-MS/MS, noncompartmental analysis; type: in vivo, rats; conditions: for MRT last: read-out: MRT0-t
Method: This study was conducted on rats, which are a promising model to predict P-gp-based drug-drug interactions at the human BBB [15]. The animals were allowed to acclimate for one week before the beginning of the experiments. Adult male Wistar-strain rats (weight 470–525 g) were used in the study. The animals were maintained under standard breeding conditions with a 12/12 h light-dark cycle (lights on at 6.00 a.m., lights off at 6.00 p.m.) at constant room temperature (23 ± 2 °C), relative humidity (55 ± 10%) and ad libitum access to food and water. The experimental protocol for this study was reviewed and approved by the Local Ethics Committee. To obtain consistent data, the study was based on the required minimum number of animals and observation time. […] Three rats were used at each time point (n = 3). In total, the research was conducted on 66 animals (n = 33 in the experimental group and n = 33 in the control group).
Elacridar was freshly dissolved in a vehicle at an initial concentration of 20 mg/mL. […] A volume of 80 μL of blood was collected from each rat by cutting off a piece of its tail. The blood samples were collected into heparinized test tubes at the following time points: […], and they were immediately centrifuged at 2880 g for 10 min at 4 °C. The anaesthetized rats (anaesthetized by intramuscular administration of 50 mg/kg ketamine and 10 mg/kg xylazine) were prepared for cisterna magna puncture. The hair over the puncture was removed and the skin was disinfected with alcohol. The animals were placed in a recumbent position with an elevated rear part of the body. The animals’ heads were slightly flexed and immobilized with the operator’s left hand. The space between the occiput rostrally and the atlas (C1) of the spinal column caudally was gently palpated with the left thumb. A 0.7 × 20 G needle with polyethylene tubing (Terumo Poland, Warsaw, Poland) was gently inserted at an approximate angle of 80–90° through the skin with the operator’s right hand into the midsagittal region. The moment that dura mater perforation was perceptible, a small amount of CSF was found in the needle tubing. To sample additional CSF, a 1 mL insulin syringe (Becton Dickinson, Warsaw, Poland) was used to collect 80–120 μL of CSF by very gentle aspiration. Only clear CSF was collected for further analysis. […] The animals’ brains were immediately dissected, washed in 0.9% NaCl and divided along the longitudinal axis. One of the brain hemispheres was again rinsed three times with 5 mL of 0.9% NaCl, weighed and homogenized with 0.9% NaCl (4 mL per 1 g of BT) in an Ultra-Turrax homogenizer (Witko, Łódź, Poland). The homogenate was then centrifuged at 4500 g for 10 min. All samples of the rat BP, CSF, and BT homogenate supernatant were stored at −80 °C until analysis.
The chromatographic analysis was conducted using a 1260 Infinity system (Agilent Technologies, Santa Clara, USA) equipped with a Kinetex® C18 column (50 × 4.6 mm, 2.6 μm, Phenomenex, Torrance, USA), which was maintained at 35 °C. The mobile phase consisted of 0.1% formic acid (v/v) in water with 5 mM ammonium formate (solvent A) and acetonitrile with 10% phase A (v/v, solvent B). The analyte and internal standard (IS, erlotinib) were eluted using a gradient run of 10 min as follows: 95% A at 0–2 min; 95%–5% A at 2–4 min; 5% A at 4–5 min; 5%–95% A at 5–6 min; 95% A at 6–10 min. The flow rate and injection volume were set at 0.7 mL/min and 10 μL, respectively. The needle was washed for 30 s in a mixture of acetonitrile, methanol, isopropanol, water, and formic acid (50:20:15:15:0.25, v/v/v/v/v).

[2] = Stability of lapatinib in QC samples, BP samples and standard solutions; type: physicochemical; conditions: for stability, deviation: low and high QC samples
Text: Data acquisition and processing were controlled with Analyst 1.5.2 software (Sciex, Framingham, USA).

[3] = design: method as in PMID 25547867; conditions: cited from earlier work
[4] = blood plasma, lapatinib 100 mg/kg oral + 5 mg/kg elacridar (IE+L)
[5] = male, Wistar, rat, plasma, oral, lapatinib 100 mg/kg + elacridar, read-out: Clapatinib in BP, S
[6] = male, Wistar, rat, plasma, oral, lapatinib 100 mg/kg + elacridar, read-out: Clapatinib in BP, single rat
[7] = male, Wistar, rat, plasma, po, 100 mg/kg, blood plasma, lapatinib 100 mg/kg oral + 5 mg/kg elacridar (IE+L)
[8] = male, Wistar, rat, plasma, po, 100 mg/kg, blood plasma, lapatinib 100 mg/kg oral alone (IIL)
[9] = male, Wistar, rat, plasma, po, 100 mg/kg, lapatinib p.o. 100 mg/kg alone, read-out: Clapatinib in BP, S (medium value)
[10] = male, Wistar, rat, plasma, po, 100 mg/kg, lapatinib p.o. 100 mg/kg alone, read-out: Clapatinib in BP, single rat

- plasma AUC0-t higher in IE+L than in IIL ([1]; BP, IE+L vs IIL group): 78.7%
- plasma AUC0-∞ higher in IE+L than in IIL ([1]; BP, IE+L vs IIL group): 155.6%
- plasma Cmax greater in IE+L than in IIL ([1]; BP, IE+L vs IIL group): 6.3%
- t0.5 prolongation when coadministered with elacridar ([1]; BP, IE+L vs IIL group): 5.2 fold
- Tmax [1, 4]: 2.50 ± 0.71 h
- t0.5 [1, 4]: 28.77 ± 6.00 h
- concentration of lapatinib after 24 h ([1]; each matrix sample (BP, CSF, BT), IIL group): undetectable
- concentration at 0.25 h [1, 5]: 780 ng/mL
- concentration at 0.25 h [1, 6]: 700 ng/mL
- concentration at 0.5 h [1, 5]: 1520 ng/mL
- concentration at 0.5 h [1, 6]: 1680 ng/mL
- concentration at 1 h [1, 5]: 1980 ng/mL
- concentration at 1 h [1, 6]: 2050 ng/mL
- concentration at 2 h [1, 5]: 3070 ng/mL
- concentration at 2 h [1, 6]: 2100 ng/mL
- concentration at 3 h [1, 5]: 2460 ng/mL
- concentration at 3 h [1, 6]: 2040 ng/mL
- concentration at 4 h [1, 5]: 1310 ng/mL
- concentration at 4 h [1, 6]: 1580 ng/mL
- concentration at 6 h [1, 5]: 1340 ng/mL
- concentration at 6 h [1, 6]: 1360 ng/mL
- concentration at 8 h [1, 5]: 1780 ng/mL
- concentration at 12 h [1, 5]: 2300 ng/mL
- concentration at 12 h [1, 6]: 2280 ng/mL
- concentration at 24 h [1, 5]: 1230 ng/mL
- concentration at 24 h [1, 6]: 1300 ng/mL
- Cmax ([1]; male, Wistar, rat, plasma, po, 100 mg/kg): 3260 ± 810 ng/mL
- AUC(0-inf) [1, 7]: 95100 ng·h/mL
- AUC(0-t) [1, 7]: 43600 ng·h/mL
- k el [1, 7]: 5.56e-06 s⁻¹
- MRT last [1, 7]: 11.1 ± 0.5 h
- AUC(0-inf) [1, 8]: 37200 ng·h/mL
- AUC(0-t) [1, 8]: 24400 ng·h/mL
- k el [1, 8]: 3.61e-05 s⁻¹
- MRT last [1, 8]: 5.7 ± 0.43 h
- concentration at 0.25 h [1, 9]: 650 ng/mL
- concentration at 0.25 h [1, 10]: 530 ng/mL
- concentration at 0.5 h [1, 9]: 1330 ng/mL
- concentration at 0.5 h [1, 10]: 1210 ng/mL
- concentration at 1 h [1, 9]: 2050 ng/mL
- concentration at 1 h [1, 10]: 1830 ng/mL
- concentration at 2 h [1, 9]: 2210 ng/mL
- concentration at 2 h [1, 10]: 1950 ng/mL
- concentration at 3 h [1, 9]: 2380 ng/mL
- concentration at 4 h [1, 9]: 3260 ng/mL
- concentration at 4 h [1, 10]: 3830 ng/mL
- concentration at 6 h [1, 9]: 1940 ng/mL
- concentration at 6 h [1, 10]: 1560 ng/mL
- concentration at 8 h [1, 9]: 1940 ng/mL
- concentration at 8 h [1, 10]: 2130 ng/mL
- concentration at 12 h [1, 9]: 1500 ng/mL
- Tmax ([1]; male, Wistar, rat, plasma, po, 100 mg/kg, read-out: tmax): 4 h
- postpreparative stability, change in the concentration ([2]; BP samples and standard solutions, 24 h and 48 h in the autosampler at 4 °C): < 15%
- stability, deviation ([2]; three freeze-thaw cycles at −80 °C): < 5%
- stability, deviation ([2]; three months of storage at −80 °C): < 15%
Compound: CS(=O)(=O)CCNCc1ccc(-c2ccc3ncnc(Nc4ccc(OCc5cccc(F)c5)c(Cl)c4)c3c2)o1 [lapatinib, N-{3-Chloro-4-[(3-fluorobenzyl)oxy]phenyl}-6-[5-({[2-(methylsulfonyl)ethyl]amino}methyl)-2-furyl]-4-quinazolinamine]
- patients with BM responding to lapatinib therapy [3]: 2.6–6.0%
